A word on the IC50: it is the midpoint of a concentration-inhibition curve. A high value points to lower potency. One may read the Kd as the constant that tells how readily two partners part at equilibrium.

For 3 compounds, IC50 and Kd results are on record in US7452906B2, “Pyridine derivatives as Raf kinase inhibitors” (SmithKline Beecham P.L.C., priority 2001, dated 2008).

The subject of assay [1] is Human diploid foreskin fibroblasts (HFF). Put plainly: XTT 72 hr Growth Inhibition (Assay 3), HFF. Format: cell-based. The conditions noted are these: Fibroblast, normal, B-Raf wt, Ras wt. The procedure:
(§1) XTT 72 hr Growth Inhibition Protocol for Mammalian Cultured Cells (Assay 3)
(§2) Human diploid foreskin fibroblasts (HFF) or human colon carcinoma (Colo 201) cells were grown in Dulbecco's modified Eagle's medium (DMEM) (Invitrogen/Life Technologies) containing 10% fetal bovine serum (FBS) and the antibiotics penicillin (100 Units/ml) and streotomycin (100 micrograms/ml) (Invitrogen/Life Technologies). Growth was at 37° C. in humidified 5% CO2 incubators in 75 cm^2 plastic flasks. Cells were harvested using 0.25% trypsin/1 mM ethylenediaminetetraacetic acid (EDTA), resuspended in growth medium, and counted using a hemocytometer. Flat-bottomed 96-well plates were seeded with 2×10^3 cells/well in a volume of 200 ul from trypsinized exponentially growing cultures. To “blank” wells, growth medium was added with no additions. Cells were incubated overnight to permit attachment.
(§3) Next day, medium from wells that contained cells was replaced with 180 microliters of fresh medium. Appropriate dilutions of test compounds were added to the wells from stock soloutions of compound dissolved in dimethyl sulfoxide DMSO); final DMSO concentration in all wells was 0.2%. Cells plus compound were incubated for an additional 72 hr at 37° C. under normal growth conditions. Cells were then assayed for viability using standard XTT/PMS*. Fifty microliters of XTT/PMS solution was added to each well and plates were incubated for 90 minutes at 37° C. Absorbance at 450 nm was then determined using a 96-well UV plate reader (Molecular Devices). Under these conditions, absorbance of untreated control cells at 450 nm was at least 1.0 optical density unit/ml. […] It was equal to 100×(A450 test well/A450 untreated control well), the A450s being averages of triplicate determinations. […]
On the technique in general: Tetrazolium assays rely on reduction of a dye to a coloured formazan, in cell work by metabolically active cells.

Assay [2] relates to colon carcinoma (Colo 205). As to the kind of experiment: Methylene Blue Growth Inhibition Assay (Assay 2), Colo205. It is filed as cell-based. The conditions noted are these: Homo sapiens, COLO 205, 72 h, colorectal cancer, B-Raf V599E, Ras wt, 3 days. As to the method:
(§4) Methylene Blue Growth Inhibition Assay (Assay 2)
(§5) Normal human foreskin fibroblasts (HFF), human melanoma (A375P, SKMEL2, SKMEL3) colon carcinoma (Colo 205) were cultured in the following growth media: A375P, Colo 205, Roswell Park Memorial Institute (RPMI) 1640 (Life Technologies 22400-089) containing 10% fetal bovine serum (FBS); HFF, Dulbecco's modified Eagle Medium (DMEM) (Life Technologies 12320-032) containing 10% FBS; SKMEL2 and SKMEL3, Minimum Essential Medium (MEM, Life Technologies 11095-080) containing 1× non-essential amino acids (Life Technologies 11140-050) and 10% FBS. Cells were harvested using 0.25% trypsin/1 mM, EDTA, counted using a haemocytometer, and plated in 100 microliters of the appropriate media, at the following densities, in a 96-well tissue culture plate Falcon 3075): HFF and A375P, 5,000 cells/well; all other cell lines, 10,000 cells/well. The next day, compounds were diluted in RPMI containing 100 micrograms/ml gentamicin, at twice the final required concentration, from 10 mM stock solutions in dimethyl sulphoxide (DMSO). One hundred microliters per well of these dilutions were added to the 100 microliters of media currently on the cell plates. RPMI containing 0.6% DMSO was added to control wells. […]. The final concentration of DMSO in all wells was 0.3%. Cells were incubated at 37° C., 5% CO2 for 3 days. Medium was removed by aspiration. Cell biomass was estimated by staining cells with 90 μl per well methylene blue (Sigma M9140, 0.5% in 50:50 ethanol:water) and incubation at room temperature for at least 30 minutes. Stain was removed, the plates rinsed by immersion in deionized water and air-dried. To release stain from the cells 100 μl of solubilization solution was added (1% N-lauroyl sarcosine, sodium salt, Sigma L5125, in phosphate-buffered saline solution (PBS)), and plates were incubated at room temperature for 30 minutes. Optical density at 620 nm was measured on a microplate reader. Percent inhibition of cell growth was calculated relative to vehicle treated control wells. […]

Assay [3] deals with human colon carcinoma (Colo 201) cells. As to the kind of experiment: XTT 72 hr Growth Inhibition (Assay 3), Colo201. Format: cell-based. The following applies: colorectal cancer, B-Raf and Ras status ND. As to the method: as §1, §2, §3
The target in assay [4] is T1, human recombinant B-Raf protein (Homo sapiens, UniProt P15056).
T1 construct: made in house; host or cells: Sf9 insect cells (baculovirus)
As to the kind of experiment: Raf Kinase Assay (Assay 1): incorporation of radiolabelled phosphate into GST-kdMEK. The conditions noted are these: head: Assay 1. Format: biochemical.
Description: Activity of human recombinant B-Raf protein was assessed in vitro by assay of the incorporation of radiolabelled phosphate to recombinant MAP kinase kinase (MEK), a known physiologic substrate of B-Raf. Catalytically active human recombinant B-Raf protein was obtained by purification from Sf9 insect cells infected with a human B-Raf recombinant baculovirus expression vector.
Method: Standard assay conditions of B-Raf catalytic activity utilised 3 ug of GST-kdMEK, 10 uM ATP and 2uCi ^33P-ATP, 50 mM MOPS, 0.1 mM EDTA, 0.1M sucrose, 10 mM MgCl2 plus 0.1% dimethylsulphoxide (containing compound where appropriate) in a total reaction volume of 30 ul. Reactions were incubated at 25° C. for 90 minutes and reactions terminated by addition of ethylenediaminetetraacetic acid (EDTA) to a final concentration of 50 uM. 10 ul of reaction was spotted to P81 phosphocellulose paper and air dried. Following four washes in ice cold 10% trichloroacetic acid, 0.5% phosphoric acid, papers were air dried prior to addition of liquid scintillant and measurement of radioactvity in a scintillation counter.

Assay [5] deals with human melanoma A375P. As to the kind of experiment: Methylene Blue Growth Inhibition Assay (Assay 2), A375P. Format: cell-based. The conditions noted are these: 72 h, B-Raf V599E, Ras wt, 3 days. As to the method:
as §4, §5

In assay [6] the test system is human melanoma SKMEL3. Put plainly: Methylene Blue Growth Inhibition Assay (Assay 2), SKMEL3. The conditions noted are these: SK-MEL3, 72 h, B-Raf V599E, Ras wt, 3 days. Format: cell-based. As to the method:
as §4, §5

Assay [7] concerns human melanoma SKMEL2. Put plainly: Methylene Blue Growth Inhibition Assay (Assay 2), SKMEL2. Format: cell-based. The following applies: SK-MEL-2, 72 h, B-Raf wt, [Q61R]N-Ras, 3 days. As to the method:
as §4, §5

T1 sequence (P15056 whole entry): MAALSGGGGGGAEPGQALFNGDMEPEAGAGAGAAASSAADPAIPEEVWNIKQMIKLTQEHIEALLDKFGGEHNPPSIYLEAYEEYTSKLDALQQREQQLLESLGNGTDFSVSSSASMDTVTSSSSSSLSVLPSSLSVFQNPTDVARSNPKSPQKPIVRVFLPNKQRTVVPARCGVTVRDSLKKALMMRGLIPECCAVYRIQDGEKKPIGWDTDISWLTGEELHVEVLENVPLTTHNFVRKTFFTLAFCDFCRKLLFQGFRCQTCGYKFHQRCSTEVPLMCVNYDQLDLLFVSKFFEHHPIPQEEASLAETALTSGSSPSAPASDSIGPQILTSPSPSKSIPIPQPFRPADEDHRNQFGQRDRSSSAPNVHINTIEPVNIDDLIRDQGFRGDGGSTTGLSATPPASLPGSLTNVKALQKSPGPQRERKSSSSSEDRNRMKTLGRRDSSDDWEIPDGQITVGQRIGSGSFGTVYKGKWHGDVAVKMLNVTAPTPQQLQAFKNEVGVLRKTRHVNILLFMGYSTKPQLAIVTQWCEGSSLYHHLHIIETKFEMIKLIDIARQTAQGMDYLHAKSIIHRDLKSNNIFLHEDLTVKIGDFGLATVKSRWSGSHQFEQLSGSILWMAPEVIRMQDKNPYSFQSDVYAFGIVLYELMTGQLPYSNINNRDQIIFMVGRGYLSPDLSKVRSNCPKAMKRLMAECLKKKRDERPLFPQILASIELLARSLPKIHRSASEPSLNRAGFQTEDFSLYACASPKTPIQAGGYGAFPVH

For the compound `O=S1(=O)CCN(Cc2cc(-c3ccc4c(c3)CCC4=NO)c(-c3ccncc3)o2)CC1` [Example 5, 5-[5-(1,1-Dioxo-1-thiomorpholin-4-ylmethyl)-2-pyridin-4-yl-furan-3-yl]-indan-1-one oxime], the IC50 is greater than 30 µM in assay [1]; 0.23 µM in assay [2]; 0.89 µM in assay [3]; 0.6 µM in assay [5]; 5.4 µM in assay [6]; 2.5 µM in assay [7]. Besides, in assay [4], the Kd was determined as 3.6 nM.
On to `ON=C1CCc2cc(-c3cc(C4CCNCC4)oc3-c3ccncc3)ccc21` [Example 31, 5-(5-Piperidin-4-yl-2-pyridin-4-yl-furan-3-yl)-indan-1-one oxime], for which the IC50 in assay [1] turned out to be 21 µM; in assay [2], 0.01 µM; in assay [3], 0.01 µM; in assay [5] it was 0.043 µM; in assay [6] it was 0.65 µM; in assay [7] it was 0.17 µM.
As for `ON=C1CCc2cc(-c3cc(CN4CCOCC4)oc3-c3ccncc3)ccc21` [Example 1, 5-(5-Morpholin-4-ylmethyl-2-pyridin-4-yl-furan-3-yl)-indan-1-one oxime], the concentration for half-maximal inhibition (IC50) in assay [1] was greater than 30 µM; in assay [2], 0.75 µM; in assay [3], 0.49 µM; in assay [5], 1.3 µM; in assay [6], 5.3 µM; in assay [7] it was 4.2 µM.
